{
  "source": "patent US20170327598A1",
  "about": "“SINGLE DOMAIN ANTIBODIES DIRECTED AGAINST INTRACELLULAR ANTIGENS” (SINGH MOLECULAR MEDICINE, LLC, priority 2014, published 2017)",
  "key": {"[1]": {"system": "ARPE-19 cells", "assay": "BCA protein content of ARPE-19 cell lysate, Experiment 1", "format": "cell-based", "details": "24 Hr; for Protein Conc.: cell lysate", "procedure": "For Experiment 1, the retinal cell line ARPE-19 (ATCC, Manassas, Va.) were plated at 5×10^4 cells/well into a 24-well plate and grown to confluence. All incubations with cells were performed in a 37° C., 5% CO2 humidified incubator. The media was replaced with growth media (DMEM:HAM12) containing 1% FBS and incubated overnight. […] At that time, the supernatant was removed and stored at <−65° C. for ELISA analysis. Cells were lysed using RIPA lysis buffer (ThermoFisher Scientific, Rockford, Ill.) and the protein content of the cell lysate was measured in the BCA assay (ThermoFisher Scientific) according to the kit instructions. VEGF-A was measured utilizing the Human VEGF-A ELISA Kit (ThermoFisher Scientific) in accordance with the kit instructions.\nELISA results were reported as pictograms (pg) VEGF-A/mL and then adjusted for the dilution of samples in the ELISA (1:2 for Experiment 1 and 1:5 for Experiment 2). The ELISA results were then normalized for protein content. […] The positive control (PC) (anti-STAT3 monoclonal antibody) ranged from 48.8 to 66.4 pg VEFG/[…] slightly lower but overlapping the range seen with the negative control. Statistical analysis confirmed that the variation seen was not statistically significant (P value >0.05). The samples collected at 72 hours were higher than the top standard curve."}, "[2]": {"system": "MCF-7 human breast tumor xenograft", "details": "for Tumor Volume TV (mm^3), group Mean / Tumor caliper measurement W (mm), individual animal / Tumor Volume TV (mm^3), individual animal / Tumor caliper measurement L (mm), individual animal: 1 mg/kg ip tid × 14"}, "[3]": {"details": "1 mg/kg ip tid × 14 first Day 2 doses"}},
  "note": "“And” between values parts separate entries of the source, which are not always exact repeats. Equal entries are not always repeated. Where two headings read alike, the source gives them in different places.",
  "data": [
    {"substance": "Anti-STAT3 VHH13: anti-STAT3 single domain antibody, SEQ ID NO:3; bacterially produced form referred to as SBT-100", "values": [
      {"measurement": "Total protein per well", "setting": "[1]; 0.1 μg/well", "value": "12 and 16 and 18"},
      {"measurement": "Protein Conc.", "setting": "[1]; 0.1 μg/well", "value": "245 µg/mL and 323 µg/mL and 357 µg/mL"},
      {"measurement": "Total protein per well", "setting": "[1]; 0.5 μg/well", "value": "16 and 13"},
      {"measurement": "Protein Conc.", "setting": "[1]; 0.5 μg/well", "value": "315 µg/mL and 268 µg/mL and 206 µg/mL"},
      {"measurement": "% TGD", "setting": "[2]; [3]", "value": 42, "unit": "%"},
      {"measurement": "Median TTE", "setting": "[2]; [3]", "value": 32.9},
      {"measurement": "T-C", "setting": "[2]; [3]", "value": 9.7},
      {"measurement": "Tumor Volume TV (mm^3), group Mean", "setting": "[2]; Day 1", "value": 117, "unit": "mm^3"},
      {"measurement": "Tumor caliper measurement W (mm), individual animal", "setting": "[2]; Day 1", "value": 6, "unit": "mm"},
      {"measurement": "Tumor Volume TV (mm^3), individual animal", "setting": "[2]; Day 1, 1 mg/kg", "value": "108 mm^3 (2×) and 126 mm^3 (2×)"},
      {"measurement": "Tumor caliper measurement L (mm), individual animal", "setting": "[2]; Day 1, 1 mg/kg", "value": "6 mm (2×) and 7 mm (2×)"},
      {"measurement": "Tumor Volume TV (mm^3), group Mean", "setting": "[2]; Day 4", "value": 155.3, "unit": "mm^3"},
      {"measurement": "Tumor Volume TV (mm^3), individual animal", "setting": "[2]; Day 4, 1 mg/kg", "value": "196 mm^3 and 126 mm^3 and 144 mm^3"},
      {"measurement": "Tumor caliper measurement L (mm), individual animal", "setting": "[2]; Day 4, 1 mg/kg", "value": "8 mm (2×) and 7 mm"},
      {"measurement": "Tumor caliper measurement W (mm), individual animal", "setting": "[2]; Day 4, 1 mg/kg", "value": "7 mm and 6 mm (2×)"},
      {"measurement": "Tumor Volume TV (mm^3), group Mean", "setting": "[2]; Day 8", "value": 253.7, "unit": "mm^3"},
      {"measurement": "Tumor Volume TV (mm^3), individual animal", "setting": "[2]; Day 8, 1 mg/kg", "value": "320 mm^3 and 196 mm^3 and 245 mm^3"},
      {"measurement": "Tumor caliper measurement L (mm), individual animal", "setting": "[2]; Day 8, 1 mg/kg", "value": 8, "unit": "mm"},
      {"measurement": "Tumor caliper measurement W (mm), individual animal", "setting": "[2]; Day 8, 1 mg/kg", "value": 7, "unit": "mm"},
      {"measurement": "Tumor Volume TV (mm^3), group Mean", "setting": "[2]; Day 11", "value": 307, "unit": "mm^3"},
      {"measurement": "Tumor Volume TV (mm^3), individual animal", "setting": "[2]; Day 11, 1 mg/kg", "value": "405 mm^3 and 196 mm^3 and 320 mm^3"},
      {"measurement": "Tumor caliper measurement L (mm), individual animal", "setting": "[2]; Day 11, 1 mg/kg", "value": 8, "unit": "mm"},
      {"measurement": "Tumor caliper measurement W (mm), individual animal", "setting": "[2]; Day 11, 1 mg/kg", "value": "9 mm and 7 mm"},
      {"measurement": "Tumor Volume TV (mm^3), group Mean", "setting": "[2]; Day 15", "value": 346.5, "unit": "mm^3"},
      {"measurement": "Tumor Volume TV (mm^3), individual animal", "setting": "[2]; Day 15, 1 mg/kg", "value": "405 mm^3 and 288 mm^3"},
      {"measurement": "Tumor caliper measurement L (mm), individual animal", "setting": "[2]; Day 15, 1 mg/kg", "value": 9, "unit": "mm"},
      {"measurement": "Tumor caliper measurement W (mm), individual animal", "setting": "[2]; Day 15, 1 mg/kg", "value": 9, "unit": "mm"},
      {"measurement": "Tumor Volume TV (mm^3), group Mean", "setting": "[2]; Day 18", "value": 346.5, "unit": "mm^3"},
      {"measurement": "Tumor Volume TV (mm^3), individual animal", "setting": "[2]; Day 18, 1 mg/kg", "value": "405 mm^3 and 288 mm^3"},
      {"measurement": "Tumor caliper measurement L (mm), individual animal", "setting": "[2]; Day 18, 1 mg/kg", "value": 9, "unit": "mm"},
      {"measurement": "Tumor caliper measurement W (mm), individual animal", "setting": "[2]; Day 18, 1 mg/kg", "value": 9, "unit": "mm"},
      {"measurement": "Tumor Volume TV (mm^3), group Mean", "setting": "[2]; Day 22", "value": 477.5, "unit": "mm^3"},
      {"measurement": "Tumor Volume TV (mm^3), individual animal", "setting": "[2]; Day 22, 1 mg/kg", "value": "550 mm^3 and 405 mm^3"},
      {"measurement": "Tumor caliper measurement L (mm), individual animal", "setting": "[2]; Day 22, 1 mg/kg", "value": 11, "unit": "mm"},
      {"measurement": "Tumor caliper measurement W (mm), individual animal", "setting": "[2]; Day 22, 1 mg/kg", "value": 9, "unit": "mm"},
      {"measurement": "Tumor Volume TV (mm^3), group Mean", "setting": "[2]; Day 25", "value": 634.5, "unit": "mm^3"},
      {"measurement": "Tumor Volume TV (mm^3), individual animal", "setting": "[2]; Day 25, 1 mg/kg", "value": "864 mm^3 and 405 mm^3"},
      {"measurement": "Tumor caliper measurement L (mm), individual animal", "setting": "[2]; Day 25, 1 mg/kg", "value": 12, "unit": "mm"},
      {"measurement": "Tumor caliper measurement W (mm), individual animal", "setting": "[2]; Day 25, 1 mg/kg", "value": "12 mm and 9 mm"},
      {"measurement": "Tumor Volume TV (mm^3), group Mean", "setting": "[2]; Day 29", "value": 799.3, "unit": "mm^3"},
      {"measurement": "Tumor Volume TV (mm^3), individual animal", "setting": "[2]; Day 29, 1 mg/kg", "value": "1099 mm^3 and 500 mm^3"},
      {"measurement": "Tumor caliper measurement L (mm), individual animal", "setting": "[2]; Day 29, 1 mg/kg", "value": 13, "unit": "mm"},
      {"measurement": "Tumor caliper measurement W (mm), individual animal", "setting": "[2]; Day 29, 1 mg/kg", "value": 13, "unit": "mm"},
      {"measurement": "Tumor Volume TV (mm^3), group Mean", "setting": "[2]; Day 32", "value": 500, "unit": "mm^3"},
      {"measurement": "Tumor Volume TV (mm^3), individual animal", "setting": "[2]; Day 32", "value": 500, "unit": "mm^3"},
      {"measurement": "Tumor Volume TV (mm^3), group Mean", "setting": "[2]; Day 36", "value": 864, "unit": "mm^3"},
      {"measurement": "Tumor Volume TV (mm^3), individual animal", "setting": "[2]; Day 36", "value": 864, "unit": "mm^3"},
      {"measurement": "Tumor caliper measurement L (mm), individual animal", "setting": "[2]; Day 36", "value": 12, "unit": "mm"},
      {"measurement": "Tumor caliper measurement W (mm), individual animal", "setting": "[2]; Day 36", "value": 12, "unit": "mm"},
      {"measurement": "Tumor Volume TV (mm^3), group Mean", "setting": "[2]; Day 39", "value": 1098.5, "unit": "mm^3"},
      {"measurement": "Tumor Volume TV (mm^3), individual animal", "setting": "[2]; Day 39", "value": 1099, "unit": "mm^3"},
      {"measurement": "Tumor caliper measurement L (mm), individual animal", "setting": "[2]; Day 39", "value": 13, "unit": "mm"},
      {"measurement": "Tumor caliper measurement W (mm), individual animal", "setting": "[2]; Day 39", "value": 13, "unit": "mm"}
    ]}
  ]
}
